How the values were obtained:
[1] = system: CCRF-CEM; experiment: NCI antiproliferative SRB assay, Leukemia panel; format: cell-based, Human
[2] = system: K-562; experiment: NCI antiproliferative SRB assay, Leukemia panel; format: cell-based, Human
[3] = system: RPMI-8226; experiment: NCI antiproliferative SRB assay, Leukemia panel; format: cell-based, Human
[4] = system: A549/ATCC; experiment: NCI antiproliferative SRB assay, Non-Small Cell Lung Cancer panel; format: cell-based, Human
[5] = system: NCI-H23; experiment: as above; format: cell-based, Human
[6] = system: COLO 205; experiment: NCI antiproliferative SRB assay, Colon Cancer panel; format: cell-based, Human
[7] = system: HCT-116; experiment: as above; format: cell-based, Human
[8] = system: KM12; experiment: as above; format: cell-based, Human
[9] = system: SF-539; experiment: NCI antiproliferative SRB assay, CNS Cancer panel; format: cell-based, Human
[10] = system: SNB-19; experiment: NCI antiproliferative SRB assay, CNS Cancer panel; format: cell-based, Human
[11] = system: U251; experiment: NCI antiproliferative SRB assay, CNS Cancer panel; format: cell-based
[12] = system: LOX IMVI; experiment: NCI antiproliferative SRB assay, Melanoma panel; format: cell-based, Human
[13] = system: MALME-3M; experiment: NCI antiproliferative SRB assay, Melanoma panel; format: cell-based, Human
[14] = system: M14; experiment: NCI antiproliferative SRB assay, Melanoma panel; format: cell-based, Human
[15] = system: MDA-MB-435; experiment: NCI antiproliferative SRB assay, Melanoma panel; format: cell-based
[16] = system: SK-MEL-28; experiment: NCI antiproliferative SRB assay, Melanoma panel; format: cell-based, Human
[17] = system: UACC-257; experiment: NCI antiproliferative SRB assay, Melanoma panel; format: cell-based, Human
[18] = system: IGROV1; experiment: NCI antiproliferative SRB assay, Ovarian Cancer panel; format: cell-based, Human
[19] = system: OVCAR-4; experiment: as above; format: cell-based, Human
[20] = system: OVCAR-5; experiment: as above; format: cell-based, Human
[21] = system: NCI/ADR-RES; experiment: as above; format: cell-based, Human
[22] = system: SK-OV-3; experiment: as above; format: cell-based, Human
[23] = system: RXF 393; experiment: NCI antiproliferative SRB assay, Renal Cancer panel; format: cell-based, Human
[24] = system: UO-31; experiment: as above; format: cell-based, Human
[25] = system: PC-3; experiment: NCI antiproliferative SRB assay, Prostate Cancer panel; format: cell-based, Human
[26] = system: MDA-MB-231; experiment: NCI antiproliferative SRB assay, Breast Cancer panel; format: cell-based
[27] = system: Non-Small Cell Lung Cancer cell line panel; experiment: NCI antiproliferative assay, panel summary; format: cell-based, Human
[28] = system: Colon Cancer cell line panel; experiment: NCI antiproliferative assay, panel summary; format: cell-based, Human
[29] = system: CNS Cancer cell line panel; experiment: NCI antiproliferative assay, panel summary; format: cell-based, Human
[30] = system: Ovarian Cancer cell line panel; experiment: NCI antiproliferative assay, panel summary; format: cell-based, Human
[31] = system: Breast Cancer cell line panel; experiment: NCI antiproliferative assay, panel summary; format: cell-based, Human
[32] = Homo sapiens, 5-dose 0.01-100 µM
[33] = Homo sapiens, 5-dose 0.01-100 µM, read-out: LC50 (the source's name)
[34] = Homo sapiens, 5-dose assay, read-out: Sub Panel MID b (mean GI50 of panel)

`COc1ccc(NC(=O)n2nc(/C=C/c3ccc(O)c(OC)c3)cc2/C=C/c2ccc(O)c(OC)c2)cc1` [3b] was tested, and the TGI ([1]; 5-dose 0.01-100 µM) was 32.7 µM, the GI50 [1, 32] was 2340 nM and the CC50 [1, 33] was > 100 µM. The “%GI” value ([1]; one dose 10 µM) was 88.23%, the “GP (growth percent)” value ([1]; one dose 10 µM) was 11.77 and the TGI ([2]; 5-dose 0.01-100 µM) was 16.9 µM. For the same compound, the GI50 ([2]; Homo sapiens, K562, 5-dose 0.01-100 µM) was 2870 nM, the CC50 ([2]; Homo sapiens, K562, 5-dose 0.01-100 µM, read-out: LC50 (the source's name)) was > 100 µM and the “%GI” value ([2]; one dose 10 µM) was 90.75%. For the same compound, the “GP (growth percent)” value ([2]; one dose 10 µM) was 9.25, the TGI ([3]; 5-dose 0.01-100 µM) was 29.2 µM and the GI50 [3, 32] was 3.38 µM. For the same compound, the CC50 [3, 33] was > 100 µM, the “%GI” value ([3]; one dose 10 µM) was 78.70% and the “GP (growth percent)” value ([3]; one dose 10 µM) was 21.30. The TGI ([4]; 5-dose 0.01-100 µM) was 97.9 µM, the GI50 [4, 32] was 5.5 µM and the LC50 (50% lethal concentration) [4, 32] was > 100 µM. For the same compound, the “%GI” value ([4]; one dose 10 µM) was 72.71%, the “GP (growth percent)” value ([4]; one dose 10 µM) was 27.29 and the TGI ([5]; 5-dose 0.01-100 µM) was 63.8 µM. The GI50 [5, 32] was 3.81 µM, the CC50 [5, 33] was > 100 µM and the “%GI” value ([5]; one dose 10 µM) was 56.06%. The “GP (growth percent)” value ([5]; one dose 10 µM) was 43.94, the TGI ([6]; 5-dose 0.01-100 µM) was 44.3 µM and the GI50 [6, 32] was 16.2 µM. For the same compound, the CC50 [6, 33] was > 100 µM, the “%GI” value ([6]; one dose 10 µM) was −6.58% and the “GP (growth percent)” value ([6]; one dose 10 µM) was 106.58. The TGI ([7]; 5-dose 0.01-100 µM) was 42.9 µM, the GI50 [7, 32] was 3.22 µM and the CC50 [7, 33] was > 100 µM. For the same compound, the “%GI” value ([7]; one dose 10 µM) was 90.87%, the “GP (growth percent)” value ([7]; one dose 10 µM) was 9.13 and the TGI ([8]; 5-dose 0.01-100 µM) was 20.7 µM. The GI50 [8, 32] was 3.19 µM, the CC50 [8, 33] was > 100 µM and the “%GI” value ([8]; one dose 10 µM) was 82.11%. For the same compound, the “GP (growth percent)” value ([8]; one dose 10 µM) was 17.89, the TGI ([9]; 5-dose 0.01-100 µM) was 13.6 µM and the GI50 [9, 32] was 2350 nM. The CC50 [9, 33] was > 100 µM, the “%GI” value ([9]; one dose 10 µM) was 93.28% and the “GP (growth percent)” value ([9]; one dose 10 µM) was 6.72. For the same compound, the TGI ([10]; 5-dose 0.01-100 µM) was 86.7 µM, the GI50 [10, 32] was 5.28 µM and the CC50 [10, 33] was > 100 µM. The “%GI” value ([10]; one dose 10 µM) was 61.15%, the “GP (growth percent)” value ([10]; one dose 10 µM) was 38.85 and the GI50 ([11]; Homo sapiens, U-251) was 3.55 µM. For the same compound, the CC50 ([11]; Homo sapiens, U-251, U251, 5-dose 0.01-100 µM, read-out: LC50 (the source's name)) was > 100 µM, the TGI ([11]; U251, 5-dose 0.01-100 µM) was 20.9 µM and the “%GI” value ([11]; U251, one dose 10 µM) was 73.97%. For the same compound, the “GP (growth percent)” value ([11]; U251, one dose 10 µM) was 26.03, the TGI ([12]; 5-dose 0.01-100 µM) was >100 µM and the GI50 [12, 32] was 3.95 µM. The CC50 [12, 33] was > 100 µM, the “%GI” value ([12]; one dose 10 µM) was 72.41% and the “GP (growth percent)” value ([12]; one dose 10 µM) was 27.59. For the same compound, the TGI ([13]; 5-dose 0.01-100 µM) was 38.6 µM, the GI50 [13, 32] was 3.66 µM and the CC50 [13, 33] was > 100 µM. The “%GI” value ([13]; one dose 10 µM) was 48.14%, the “GP (growth percent)” value ([13]; one dose 10 µM) was 51.86 and the TGI ([14]; 5-dose 0.01-100 µM) was 41.5 µM. For the same compound, the GI50 [14, 32] was 3.15 µM, the CC50 [14, 33] was > 100 µM and the “%GI” value ([14]; one dose 10 µM) was 95.03%. The “GP (growth percent)” value ([14]; one dose 10 µM) was 4.97, the TGI ([15]; 5-dose 0.01-100 µM) was 4.68 µM and the GI50 ([15]; Homo sapiens) was 1250 nM. The CC50 [15, 33] was > 100 µM, the “%GI” value ([15]; one dose 10 µM) was 136.25% and the “GP (growth percent)” value ([15]; one dose 10 µM) was −36.25. For the same compound, the TGI ([16]; 5-dose 0.01-100 µM) was 92.7 µM, the GI50 [16, 32] was 3.52 µM and the CC50 [16, 33] was > 100 µM. The “%GI” value ([16]; one dose 10 µM) was 65.47%, the “GP (growth percent)” value ([16]; one dose 10 µM) was 34.53 and the TGI ([17]; 5-dose 0.01-100 µM) was 64.8 µM. For the same compound, the GI50 [17, 32] was 16.7 µM, the CC50 [17, 33] was > 100 µM and the “%GI” value ([17]; one dose 10 µM) was 24.78%. The “GP (growth percent)” value ([17]; one dose 10 µM) was 75.22, the TGI ([18]; 5-dose 0.01-100 µM) was 57.0 µM and the GI50 ([18]; Homo sapiens, IGROV-1, 5-dose 0.01-100 µM) was 4.49 µM. For the same compound, the CC50 ([18]; Homo sapiens, IGROV-1, 5-dose 0.01-100 µM, read-out: LC50 (the source's name)) was > 100 µM, the “%GI” value ([18]; one dose 10 µM) was 65.61% and the “GP (growth percent)” value ([18]; one dose 10 µM) was 34.39. For the same compound, the TGI ([19]; 5-dose 0.01-100 µM) was 90.7 µM, the GI50 [19, 32] was 5.72 µM and the CC50 [19, 33] was > 100 µM. For the same compound, the “%GI” value ([19]; one dose 10 µM) was 48.49%, the “GP (growth percent)” value ([19]; one dose 10 µM) was 51.51 and the TGI ([20]; 5-dose 0.01-100 µM) was 54.1 µM. The GI50 [20, 32] was 18.8 µM, the CC50 [20, 33] was > 100 µM and the “%GI” value ([20]; one dose 10 µM) was 37.70%. For the same compound, the “GP (growth percent)” value ([20]; one dose 10 µM) was 62.30, the TGI ([21]; 5-dose 0.01-100 µM) was >100 µM and the GI50 [21, 32] was 4.28 µM. For the same compound, the CC50 [21, 33] was > 100 µM, the “%GI” value ([21]; one dose 10 µM) was 76.11% and the “GP (growth percent)” value ([21]; one dose 10 µM) was 23.89. The TGI ([22]; 5-dose 0.01-100 µM) was 27.5 µM, the GI50 [22, 32] was 3.66 µM and the CC50 [22, 33] was > 100 µM. For the same compound, the “%GI” value ([22]; one dose 10 µM) was 39.26%, the “GP (growth percent)” value ([22]; one dose 10 µM) was 60.74 and the TGI ([23]; 5-dose 0.01-100 µM) was 8.87 µM. For the same compound, the GI50 [23, 32] was 3.02 µM, the CC50 [23, 33] was > 100 µM and the “%GI” value ([23]; one dose 10 µM) was 76.99%. For the same compound, the “GP (growth percent)” value ([23]; one dose 10 µM) was 23.01, the TGI ([24]; 5-dose 0.01-100 µM) was 36.4 µM and the GI50 [24, 32] was 1520 nM. The LC50 (50% lethal concentration) [24, 32] was > 100 µM, the “%GI” value ([24]; one dose 10 µM) was 77.33% and the “GP (growth percent)” value ([24]; one dose 10 µM) was 22.67. For the same compound, the TGI ([25]; 5-dose 0.01-100 µM) was >100 µM, the GI50 [25, 32] was 5.11 µM and the CC50 [25, 33] was > 100 µM. The “%GI” value ([25]; one dose 10 µM) was 71.57%, the “GP (growth percent)” value ([25]; one dose 10 µM) was 28.43 and the TGI ([26]; 5-dose 0.01-100 µM) was 83.5 µM. The GI50 ([26]; Homo sapiens) was 4.94 µM, the CC50 [26, 33] was > 100 µM and the “%GI” value ([26]; one dose 10 µM) was 63.47%. The “GP (growth percent)” value ([26]; one dose 10 µM) was 36.53, the “Mean % GI” value ([27]; 10 µM) was 56.51% and the “Selectivity Ratio (MID a:MID b)” value ([27]; 5-dose assay) was 0.92. The GI50 [27, 34] was 5.32 µM, the “Mean % GI” value ([28]; 10 µM) was 60% and the “Selectivity Ratio (MID a:MID b)” value ([28]; 5-dose assay) was 0.85. The GI50 [28, 34] was 5.77 µM, the “Mean % GI” value ([29]; 10 µM) was 67.06% and the “Selectivity Ratio (MID a:MID b)” value ([29]; 5-dose assay) was 1.28. The GI50 [29, 34] was 3.83 µM, the “Mean % GI” value ([30]; 10 µM) was 60.11% and the “Selectivity Ratio (MID a:MID b)” value ([30]; 5-dose assay) was 0.76. For the same compound, the GI50 [30, 34] was 6.46 µM, the “Mean % GI” value ([31]; 10 µM) was 69.71% and the “Selectivity Ratio (MID a:MID b)” value ([31]; 5-dose assay) was 1.19. For the same compound, the GI50 [31, 34] was 4.12 µM.

Reference: paper PMC8398451, “Molecular Engineering of Curcumin, an Active Constituent of Curcuma longa L. (Turmeric) of the Family Zingiberaceae with Improved Antiproliferative Activity” (Plants, 2021)
